According to ChEMBL document CHEMBL3091361, “Synthesis, structure elucidation and in vitro anticancer activities of novel derivatives of diethyl (2E)-2-[(2E)-(1-arylimidazolidin-2-ylidene)hydrazono]succinate and ethyl (4-oxo-8-aryl-4,6,7,8-tetrahydroimidazo[2,1-c][1,2,4]triazin-3-yl)acetate” (Bioorg Med Chem, 2013):

Legend:
[1] = Selectivity ratio for human HeLa cells over human HSF cells after 72 hrs; assay type: ADME, cell-based; conditions: HeLa cells versus HSF cells
[2] = Selectivity ratio for human T47D cells over human HSF cells after 72 hrs; assay type: ADME, cell-based; conditions: T47D cells versus HSF cells
[3] = Selectivity ratio for human HeLa cells over human HSF cells after 24 hrs; assay type: ADME, cell-based; conditions: HeLa cells versus HSF cells
[4] = Selectivity ratio for human HeLa cells over human HSF cells after 48 hrs; assay type: ADME, cell-based; conditions: HeLa cells versus HSF cells
HeLa [5] = experiment: Cytotoxicity against human HeLa cells at 50 ug/ml after 72 hrs by BrdU incorporation assay relative to control; assay type: functional; conditions: read-out: GI
[6] = Cytotoxicity against human MM1S cells at 50 ug/ml after 72 hrs by BrdU incorporation assay relative to control; assay type: functional; conditions: MM1.S, read-out: GI
[7] = Cytotoxicity against human MM1S cells at 50 ug/ml after 48 hrs by BrdU incorporation assay relative to control; assay type: functional; conditions: MM1.S, read-out: GI
[8] = Cytotoxicity against human HSF cells at 50 ug/ml after 72 hrs by BrdU incorporation assay relative to control; assay type: cell-based; conditions: read-out: GI
HeLa [9] = experiment: Cytotoxicity against human HeLa cells at 50 ug/ml after 24 hrs by BrdU incorporation assay relative to control; assay type: functional; conditions: read-out: GI
HeLa [10] = experiment: Cytotoxicity against human HeLa cells at 50 ug/ml after 48 hrs by BrdU incorporation assay relative to control; assay type: functional; conditions: read-out: GI
[11] = Cytotoxicity against human MM1S cells at 50 ug/ml after 24 hrs by BrdU incorporation assay relative to control; assay type: functional; conditions: MM1.S, read-out: GI
[12] = Cytotoxicity against human HSF cells at 50 ug/ml after 24 hrs by BrdU incorporation assay relative to control; assay type: cell-based; conditions: read-out: GI
[13] = Cytotoxicity against human HSF cells at 50 ug/ml after 48 hrs by BrdU incorporation assay relative to control; assay type: cell-based; conditions: read-out: GI
[14] = Cytotoxicity against human MM1R cells at 50 ug/ml after 48 hrs by BrdU incorporation assay relative to control; assay type: functional; conditions: MM.1R, read-out: GI
[15] = Cytotoxicity against human MM1R cells at 50 ug/ml after 24 hrs by BrdU incorporation assay relative to control; assay type: functional; conditions: MM.1R, read-out: GI
T47D [16] = experiment: Cytotoxicity against human T47D cells at 50 ug/ml after 24 hrs by BrdU incorporation assay relative to control; assay type: functional; conditions: read-out: GI
[17] = Cytotoxicity against human HSF cells at 50 ug/ml by BrdU incorporation assay; assay type: cell-based; conditions: TDE = time-dependent effect
T47D [18] = experiment: Cytotoxicity against human T47D cells at 50 ug/ml after 48 hrs by BrdU incorporation assay relative to control; assay type: functional; conditions: read-out: GI
T47D [19] = experiment: Cytotoxicity against human T47D cells at 50 ug/ml after 72 hrs by BrdU incorporation assay relative to control; assay type: functional; conditions: read-out: GI
[20] = Cytotoxicity against human MM1R cells at 50 ug/ml after 72 hrs by BrdU incorporation assay relative to control; assay type: functional; conditions: MM.1R, read-out: GI
[21] = Selectivity ratio for human RPMI8226 cells over human HSF cells; assay type: ADME, cell-based, RPMI-8226; conditions: RPMI8226 cells versus HSF cells
[22] = Toxicity in ip dosed albino-Swiss mouse; assay type: organism-based; conditions: in vivo

COc1ccccc1N1CCn2c1nnc(-c1ccco1)c2=O
selectivity ratio at 72 h [1]: 16 | selectivity ratio at 72 h [2]: 14

O=c1c(-c2ccco2)nnc2n1CCN2c1ccccc1Cl
selectivity ratio at 24 h [3]: 8 | selectivity ratio at 72 h [1]: 5 | selectivity ratio at 48 h [4]: 4

O=c1c(-c2ccco2)nnc2n1CCN2c1c(Cl)cccc1Cl
selectivity ratio at 24 h [3]: 8 | selectivity ratio at 72 h [1]: > 6 | selectivity ratio at 48 h [4]: > 5

CCOC(=O)Cc1nnc2n(c1=O)CCN2c1ccc(Cl)cc1
inhibition of growth at 50 µg/mL (HeLa [5]): 40% | inhibition of growth at 50 µg/mL [6]: 90% | inhibition of growth at 50 µg/mL [7]: 75% | inhibition at 72 h, 50 ug/ml [8]: 80% | inhibition of growth at 50 µg/mL (HeLa [9]): 20% | inhibition of growth at 50 µg/mL (HeLa [10]): 30% | inhibition of growth at 50 µg/mL [11]: 45% | inhibition at 24 h, 50 ug/ml [12]: 50% | inhibition at 48 h, 50 ug/ml [13]: 75% | inhibition of growth at 50 µg/mL [14]: 85% | inhibition of growth at 50 µg/mL [15]: 80% | inhibition of growth at 50 µg/mL (T47D [16]): 50% | Activity [17]: tde | inhibition of growth at 50 µg/mL (T47D [18]): 50% | inhibition of growth at 50 µg/mL (T47D [19]): 50% | inhibition of growth at 50 µg/mL [20]: 90%

COc1ccc(N2CCn3c2nnc(-c2ccccc2)c3=O)cc1
selectivity ratio [21]: 1.7 | LD50 [22]: > 2000 mg/kg
